These results are taken from EP3539964A1, “BASE ACETAMIDE GLYCERIN ETHER MOLECULE, CHEMICAL SYNTHESIS METHOD THEREFOR, AND APPLICATIONS THEREOF IN FIELD OF GENE THERAPY” (Peking University, priority 2016, dated 2018).

One series has as its system Hela cells. The experiment in a line: Transfection of FAM-labeled polyA/G, fluorescence intensity by flow cytometry. The class given is cell-based. Conditions: liposomes mixed with FAM-polyA at base ratio 5/1, 100 nM FAM-polyA, 4 hours, Hela cells (Fig. 7). The text has this:
Taking DNTA and DNCA as examples, FAM-labeled polyA/G was used as a template to study the nucleic acid transfection abilities of thymine base acetamide glycerin ethers. The specific coating and transfection process is as follows: DNTA or DNCA liposomes were formulated as mixed solutions with FAM-polyA or FAM-polyG at a base ratios of 5/1. […] The DNA-free and DNA-only wells were used as two negative controls, and the transfection reagent Lipofectamine 2000-DNA complex (the method of addition of transfection reagent and DNA group according to the protocol) was added as a positive control; • (3) Washing three times with 500 µL PBS; • (4) After 4 hours, the liquids in the culture wells were aspirated, after adding 250 µL of 5% trypsin each, they were placed in 1.5 mL EP tubes, the cells were fixed with 4% paraformaldehyde for 15 min; • (5) Centrifuging, discarding the supernatant, adding 400 µL PBS in each tube; • (6) Fluorescence intensity was measured by using flow cytometry;
A general note: Flow cytometry measures light scatter and fluorescence of single cells or particles in a stream.

Series [1] is described as follows: Cytotoxicity using CCK-8 kit. The settings on record: for viability at 72 h, 60 µM: 72 hours after addition, concentration of 60 µM, read-out: cell survival rate; for cytotoxicity: CCK-8 kit (Fig. 6). The class given is cell-based. The method, then: When base acetamide glycerin ether molecules should is to be used as novel biomaterials in the field of gene therapy, they must have good biocompatibility. Two base acetamide glycerin ether compounds (DOCA and DOTA) were studied for cytotoxicity using CCK-8 kit. […] After 72 hours of addition of the base acetamide glycerin ether compound at a concentration of 60 µM, the cell survival rate was close to 100%, indicating good biocompatibility (Fig. 6).
Background: Formazan colour is commonly taken as a measure of viable cells.

The test system of a further series is MCF-7 cells. The experiment in a line: Antisense nucleic acid (Cenersen) uptake. The format is cell-based. The settings on record: liposomes, compared with blank group and DOCA/DOTA liposome groups (Fig. 8). Here is the method:
The cells used in the transfection experiments were Hela cells. • (1) Plating: 300,000 cells were added to the six-well plate, and the volume per well was 1.8 mL; • (2) After 18-24 h, the samples were diluted in an appropriate amount of opti-MEM, blowing and suction with a pipette to mix well, 20 µL of the mixed […] The DNA-free and DNA-only wells were used as two negative controls, and the transfection reagent Lipofectamine 2000-DNA complex (the method of addition of transfection reagent and DNA group according to the protocol) was added as a positive control; • (3) Washing three times with 500 µL PBS; • (4) After 4 hours, the liquids in the culture wells were aspirated, after adding 250 µL of 5% trypsin each, they were placed in 1.5 mL EP tubes, the cells were fixed with 4% paraformaldehyde for 15 min; • (5) Centrifuging, discarding the supernatant, adding 400 µL PBS in each tube; • (6) Fluorescence intensity was measured by using flow cytometry;
The procedure was the same as the transfection experiments of DNCA- and DNTA-packed PolyG/PolyA (using DOCA and DOTA as controls), the cell line was selected from MCF-7 cell line.

Series [2] can be described thus: Particle size and morphology of liposomes by electron microscopy. The class given is physicochemical. The settings on record: liposome/nanoparticles self-assembled in water, electron microscopy (Fig. 5). Here is the method: The base-acetamide glycerin ether molecule has an amphiphilic structure and can be prepared into a supramolecular structure such as a liposome. Taking DNTA as an example, the preparation method of liposome is as follows: DNTA (1.18 mg, 1.56 µmol) is dissolved in methanol (1 mL), vortexed to fully dissolve, after centrifugation, DNTA methanol solution (12.8 µL) is measured out and adding to a 200 µL centrifuge tube, added with PBS (100 µL), vortexed (10 s) to mix well. The solution was placed in a PCR program for annealing. Procedure: Heating at 95°C for 10 minutes, cool down 5°C every 5 minutes until 15°C, then store at 4°C. After annealing was completed, the centrifuge tube was incubated at 40°C for 30 min for the complete evaporation of methanol to obtain the liposome solution.
Under transmission electron microscope (TEM), it can be seen that the neutral base lipid carrier molecules DNCA and DNTA can form stable and uniform nanoparticles in aqueous solution. The size of the DNTA molecules assembled in water is around 150 nm. The size of the liposome formed by self-assembly of DNCA carrier molecules in water is around 180 nm (Fig. 5).

With `CCCCCCCC/C=C\CCCCCCCCOCC(CNC(=O)Cn1ccc(N)nc1=O)OCCCCCCCC/C=C\CCCCCCCC` (stereo not shown) [DNCA, 1,2,-bis(oleyl)-glycero-3-amine-(cytosin-1-yl)-acetyl ester], the “transfection of FAM-polyA into cells” value in the series with Hela cells is on record as “can successfully transport FAM-polyA into cells”. In addition, in series [1], the viability at 72 h, 60 µM was around 100% and the cytotoxicity result was “no obvious cytotoxicity”. The “uptake of antisense nucleic acid” value with MCF-7 cells is recorded as “could significantly increase the uptake ability of MCF-7 cells”. Also, in series [2], the size entry was “around 180 nm”.
The matching figures for `CCCCCCCC/C=C\CCCCCCCCOCC(CNC(=O)Cn1cc(C)c(=O)[nH]c1=O)OCCCCCCCC/C=C\CCCCCCCC` (stereo not shown) [DNTA, 1,2,-bis(oleyl)-glycero-3-amine-(thymidine-1-yl)-acetyl ester]: “can successfully transport FAM-polyA into cells”, around 100%, “no obvious cytotoxicity”, “could significantly increase the uptake ability of MCF-7 cells” and “around 150 nm”.
